Patent publication US11725012B2, “Imidazo[1,5-a]pyrazine derivatives as PI3K δ inhibitors” (priority 2016, dated 2023)

Tests used:
Type in all cases: biochemical
[1] = biological target: recombinant PI3K (p110α/p85α) (Homo sapiens, UniProt P42336); experiment: PI3Kα ADP-Glo kinase assay; details: read-out: PI3Kα Enzyme activity IC50
[2] = biological target: recombinant PI3K (p110δ/p85α) (Homo sapiens, UniProt O00329); experiment: PI3Kδ ADP-Glo kinase assay; details: read-out: PI3Kδ Enzyme activity IC50
Sequence of recombinant PI3K (p110δ/p85α) (O00329 whole entry): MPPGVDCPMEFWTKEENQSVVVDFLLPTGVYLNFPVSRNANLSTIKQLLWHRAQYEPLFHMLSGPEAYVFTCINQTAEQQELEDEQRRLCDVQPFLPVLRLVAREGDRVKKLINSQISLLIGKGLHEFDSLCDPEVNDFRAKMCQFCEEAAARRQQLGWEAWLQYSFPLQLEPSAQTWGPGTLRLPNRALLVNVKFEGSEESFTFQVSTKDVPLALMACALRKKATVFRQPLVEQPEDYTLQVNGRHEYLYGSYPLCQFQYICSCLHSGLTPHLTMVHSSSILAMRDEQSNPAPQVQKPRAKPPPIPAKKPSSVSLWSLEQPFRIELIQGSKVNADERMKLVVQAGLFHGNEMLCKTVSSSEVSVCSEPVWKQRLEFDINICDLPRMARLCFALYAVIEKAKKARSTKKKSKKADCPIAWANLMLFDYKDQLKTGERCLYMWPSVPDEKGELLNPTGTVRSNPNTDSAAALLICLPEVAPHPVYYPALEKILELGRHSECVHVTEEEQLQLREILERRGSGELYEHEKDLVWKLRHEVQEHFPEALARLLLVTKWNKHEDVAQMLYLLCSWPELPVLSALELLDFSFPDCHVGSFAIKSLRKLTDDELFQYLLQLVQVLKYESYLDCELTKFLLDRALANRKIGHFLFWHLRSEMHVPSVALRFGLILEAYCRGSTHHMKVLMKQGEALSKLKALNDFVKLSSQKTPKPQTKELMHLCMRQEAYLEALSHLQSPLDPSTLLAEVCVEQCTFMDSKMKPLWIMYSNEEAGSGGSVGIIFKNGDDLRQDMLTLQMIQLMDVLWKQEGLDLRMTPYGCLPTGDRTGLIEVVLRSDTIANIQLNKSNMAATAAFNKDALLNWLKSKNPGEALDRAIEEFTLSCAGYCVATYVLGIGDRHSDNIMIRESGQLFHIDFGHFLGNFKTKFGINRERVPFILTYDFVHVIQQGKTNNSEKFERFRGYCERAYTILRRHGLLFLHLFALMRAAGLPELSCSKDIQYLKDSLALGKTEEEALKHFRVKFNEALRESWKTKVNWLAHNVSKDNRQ
Sequence of recombinant PI3K (p110δ/p85α) (P27986 whole entry partner): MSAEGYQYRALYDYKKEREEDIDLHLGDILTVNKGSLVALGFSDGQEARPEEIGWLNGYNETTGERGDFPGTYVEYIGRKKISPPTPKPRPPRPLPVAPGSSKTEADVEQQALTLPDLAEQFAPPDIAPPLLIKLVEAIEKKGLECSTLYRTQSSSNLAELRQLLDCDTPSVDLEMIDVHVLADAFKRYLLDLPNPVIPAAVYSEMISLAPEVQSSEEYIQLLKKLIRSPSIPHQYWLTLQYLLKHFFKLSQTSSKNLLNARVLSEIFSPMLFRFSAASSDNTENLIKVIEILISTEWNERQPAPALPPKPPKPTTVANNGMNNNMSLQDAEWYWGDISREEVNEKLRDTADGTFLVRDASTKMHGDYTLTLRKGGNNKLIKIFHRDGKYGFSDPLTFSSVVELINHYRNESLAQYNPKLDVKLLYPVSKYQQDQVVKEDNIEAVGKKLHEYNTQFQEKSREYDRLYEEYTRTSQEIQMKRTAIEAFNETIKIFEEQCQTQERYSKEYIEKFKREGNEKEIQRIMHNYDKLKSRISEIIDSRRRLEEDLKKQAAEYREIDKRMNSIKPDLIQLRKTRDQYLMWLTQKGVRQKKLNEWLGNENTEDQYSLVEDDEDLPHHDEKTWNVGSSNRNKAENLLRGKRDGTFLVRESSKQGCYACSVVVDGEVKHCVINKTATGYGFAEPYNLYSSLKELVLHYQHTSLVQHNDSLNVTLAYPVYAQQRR
In short: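 ADP-Glo luminescence with recombinant p110δ/p85α and lipid kinase substrate. Compound serial dilutions preincubated 0.5 hr, ATP added, reaction 1 hr at room temperature, then ATP depletion and detection steps. IC50 from a four-parameter logistic fit of residual activity.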

PI3K (p110β/p85α) = PI3K (p110β/p85α) (Homo sapiens, UniProt P42338); experiment: PI3Kβ ADP-Glo kinase assay; details: read-out: PI3Kβ Enzyme activity IC50
Sequence of PI3K (p110β/p85α) (P42338 whole entry): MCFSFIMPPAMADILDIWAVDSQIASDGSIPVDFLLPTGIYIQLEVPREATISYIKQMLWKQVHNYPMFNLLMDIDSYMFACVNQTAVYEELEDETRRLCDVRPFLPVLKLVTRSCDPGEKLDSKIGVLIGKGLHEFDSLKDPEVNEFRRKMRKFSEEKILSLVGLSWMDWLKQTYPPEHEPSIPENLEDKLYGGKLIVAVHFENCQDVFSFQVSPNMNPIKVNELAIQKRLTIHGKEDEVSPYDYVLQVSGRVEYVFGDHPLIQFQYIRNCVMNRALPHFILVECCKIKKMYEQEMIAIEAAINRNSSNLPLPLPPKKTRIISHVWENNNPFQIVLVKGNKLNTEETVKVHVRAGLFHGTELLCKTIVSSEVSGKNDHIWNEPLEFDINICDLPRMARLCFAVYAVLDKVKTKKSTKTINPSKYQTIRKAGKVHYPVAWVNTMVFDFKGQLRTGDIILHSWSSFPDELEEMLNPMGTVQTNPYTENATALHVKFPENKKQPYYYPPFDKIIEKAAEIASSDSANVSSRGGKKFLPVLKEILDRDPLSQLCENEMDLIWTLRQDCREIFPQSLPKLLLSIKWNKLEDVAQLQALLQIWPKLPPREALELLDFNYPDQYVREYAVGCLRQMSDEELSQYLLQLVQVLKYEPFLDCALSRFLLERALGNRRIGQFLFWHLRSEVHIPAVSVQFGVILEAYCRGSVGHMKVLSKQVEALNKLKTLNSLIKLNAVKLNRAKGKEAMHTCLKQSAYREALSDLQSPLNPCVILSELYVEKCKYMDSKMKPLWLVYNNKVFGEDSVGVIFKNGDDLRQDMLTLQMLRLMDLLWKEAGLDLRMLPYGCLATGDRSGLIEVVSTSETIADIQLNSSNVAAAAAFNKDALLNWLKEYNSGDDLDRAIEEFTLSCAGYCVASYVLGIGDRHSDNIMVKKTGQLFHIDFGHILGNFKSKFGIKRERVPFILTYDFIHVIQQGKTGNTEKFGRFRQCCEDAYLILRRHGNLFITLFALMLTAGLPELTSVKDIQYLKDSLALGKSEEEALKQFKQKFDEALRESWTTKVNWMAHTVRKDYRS
Sequence of PI3K (p110β/p85α) (P27986 whole entry partner): as the sequence (P27986 whole entry partner) above

PI3K (p110γ) = PI3K (p110γ) (Homo sapiens, UniProt P48736); experiment: PI3Kγ ADP-Glo kinase assay; details: read-out: PI3Kγ Enzyme activity IC50
Sequence of PI3K (p110γ) (P48736 whole entry): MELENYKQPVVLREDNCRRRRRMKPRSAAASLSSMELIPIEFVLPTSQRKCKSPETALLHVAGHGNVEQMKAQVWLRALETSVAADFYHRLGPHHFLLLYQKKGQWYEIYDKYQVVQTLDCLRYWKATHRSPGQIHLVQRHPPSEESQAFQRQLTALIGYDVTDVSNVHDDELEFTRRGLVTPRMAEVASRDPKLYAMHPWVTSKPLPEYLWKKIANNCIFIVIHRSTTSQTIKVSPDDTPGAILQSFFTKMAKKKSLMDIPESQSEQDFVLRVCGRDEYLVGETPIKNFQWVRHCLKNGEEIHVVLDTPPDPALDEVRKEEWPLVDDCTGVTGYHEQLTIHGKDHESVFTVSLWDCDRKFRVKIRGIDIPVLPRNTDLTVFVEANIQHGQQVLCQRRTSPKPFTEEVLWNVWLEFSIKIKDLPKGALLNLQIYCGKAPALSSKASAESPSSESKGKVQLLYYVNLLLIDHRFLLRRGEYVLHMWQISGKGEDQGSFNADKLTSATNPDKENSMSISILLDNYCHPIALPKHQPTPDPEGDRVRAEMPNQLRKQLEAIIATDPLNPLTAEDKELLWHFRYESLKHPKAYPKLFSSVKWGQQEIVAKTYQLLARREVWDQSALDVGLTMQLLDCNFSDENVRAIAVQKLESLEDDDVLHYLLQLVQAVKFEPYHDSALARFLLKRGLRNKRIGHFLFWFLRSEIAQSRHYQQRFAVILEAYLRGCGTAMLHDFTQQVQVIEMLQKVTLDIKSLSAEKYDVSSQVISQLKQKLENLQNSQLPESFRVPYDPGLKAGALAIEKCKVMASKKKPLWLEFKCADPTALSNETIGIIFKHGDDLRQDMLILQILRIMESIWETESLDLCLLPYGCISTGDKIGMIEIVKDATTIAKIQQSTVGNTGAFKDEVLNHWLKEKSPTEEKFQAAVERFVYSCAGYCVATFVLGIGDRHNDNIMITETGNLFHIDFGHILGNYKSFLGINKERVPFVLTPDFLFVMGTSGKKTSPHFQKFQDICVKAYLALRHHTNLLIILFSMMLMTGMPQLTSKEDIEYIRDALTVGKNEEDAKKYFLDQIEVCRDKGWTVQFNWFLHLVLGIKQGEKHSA

Sequence of recombinant PI3K (p110α/p85α) (P42336 whole entry): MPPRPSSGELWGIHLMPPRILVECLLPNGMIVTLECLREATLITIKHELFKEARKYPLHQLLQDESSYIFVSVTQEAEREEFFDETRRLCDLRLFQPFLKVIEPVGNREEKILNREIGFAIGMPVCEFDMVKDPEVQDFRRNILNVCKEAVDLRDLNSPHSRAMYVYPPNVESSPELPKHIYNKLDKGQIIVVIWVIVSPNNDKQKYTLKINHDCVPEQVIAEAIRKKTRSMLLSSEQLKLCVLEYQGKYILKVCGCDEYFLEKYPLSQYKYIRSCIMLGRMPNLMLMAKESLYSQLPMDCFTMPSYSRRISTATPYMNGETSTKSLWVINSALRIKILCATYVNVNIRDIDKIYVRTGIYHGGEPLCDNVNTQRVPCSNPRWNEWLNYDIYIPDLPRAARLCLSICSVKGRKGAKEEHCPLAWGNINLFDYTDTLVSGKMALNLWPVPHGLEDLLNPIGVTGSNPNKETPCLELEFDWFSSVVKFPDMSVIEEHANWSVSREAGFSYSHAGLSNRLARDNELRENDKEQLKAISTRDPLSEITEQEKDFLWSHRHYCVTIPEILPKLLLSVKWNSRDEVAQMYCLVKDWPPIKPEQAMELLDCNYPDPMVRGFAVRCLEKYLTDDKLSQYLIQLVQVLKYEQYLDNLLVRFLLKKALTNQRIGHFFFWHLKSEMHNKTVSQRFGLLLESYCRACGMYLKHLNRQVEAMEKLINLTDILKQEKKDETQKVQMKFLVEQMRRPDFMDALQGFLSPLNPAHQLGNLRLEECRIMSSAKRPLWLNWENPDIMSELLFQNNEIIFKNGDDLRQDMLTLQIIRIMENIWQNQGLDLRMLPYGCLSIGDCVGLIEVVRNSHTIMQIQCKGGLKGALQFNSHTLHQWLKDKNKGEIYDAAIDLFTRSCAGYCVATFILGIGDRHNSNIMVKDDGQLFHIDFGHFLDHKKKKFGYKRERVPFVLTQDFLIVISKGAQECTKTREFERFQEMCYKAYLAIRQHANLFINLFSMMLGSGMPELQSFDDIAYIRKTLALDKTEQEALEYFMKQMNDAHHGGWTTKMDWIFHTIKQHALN
Sequence of recombinant PI3K (p110α/p85α) (P27986 whole entry partner): as the sequence (P27986 whole entry partner) above

| SMILES | IC50 [1] [nM] | IC50 [2] [nM] | IC50 (PI3K (p110β/p85α)) [nM] | IC50 (PI3K (p110γ)) [nM] |
| --- | --- | --- | --- | --- |
| CCOc1c(C(C)c2nc(Cl)c3c(N)nccn23)cc(Cl)c(C)c1-c1ccc(OC)nc1 (centres unmarked) [Compound 29, 1-chloro-3-(1-(5-chloro-2-ethoxy-3-(6-methoxypyridin-3-yl)-4-methylphenyl)ethyl)imidazo[1,5-a]pyrazin-8-amine] | 2900 | 2.1 | 820 | 1100 |
| CCOc1c(C(C)c2nc(Cl)c3c(N)nccn23)cc(Cl)c(C)c1-c1ccc(Cl)nc1 (centres unmarked) [Compound 27, 1-chloro-3-(1-(5-chloro-3-(6-chloropyridin-3-yl)-2-ethoxy-4-methylphenyl)ethyl)imidazo[1,5-a]pyrazin-8-amine] | 3300 | 2.5 | 1800 | 1400 |
| CCOc1c(C(C)c2nc(Cl)c3c(N)nccn23)cc(Cl)c(F)c1-c1ccc(C(F)(F)F)nc1OC (centres unmarked) [Compound 43, 1-chloro-3-(1-(5-chloro-2-ethoxy-4-fluoro-3-(2-methoxy-6-(trifluoromethyl)pyridin-3-yl)phenyl)ethyl)imidazo[1,5-al]pyrazin-8-amine] | > 50000 | 59 | > 50000 | > 50000 |
| CCOc1c([C@H](C)c2nc(Cl)c3c(N)nccn23)cc(Cl)c(C)c1-c1ccc(C(=O)O)nc1 [Compound 12] | 1300 | 1.7 | 870 | 67 |
| CCCOc1c([C@H](C)c2nc(Cl)c3c(N)nccn23)cc(Cl)c(F)c1-c1ccc(C(F)(F)F)nc1 [Compound 42A] | 26000 | 4.1 | 2200 | 810 |
| CCOc1c([C@H](C)c2nc(Cl)c3c(N)nccn23)cc(Cl)c(F)c1-c1ccc(C(F)(F)F)nc1OC [Compound 43A] | > 50000 | 28 | > 50000 | > 50000 |
| CCOc1c(C(C)c2nc(Cl)c3c(N)nccn23)cc(F)c(Cl)c1-c1ccc(C(F)(F)F)nc1 (centres unmarked) [Compound 33, 1-chloro-3-(1-(4-chloro-2-ethoxy-5-fluoro-3-(6-(trifluoromethyl)pyridin-3-yl)phenyl)ethyl)imidazo[1,5-a]pyrazin-8-amine] | 1800 | 5.7 | 1800 | 750 |
| CCOc1c(C(C)c2nc(Cl)c3c(N)nccn23)cc(Cl)c(C)c1-c1ccc(OC)cc1 (centres unmarked) [Compound 45, 1-chloro-3-(1-(5-chloro-2-ethoxy-4′-methoxy-6-methyl-[1,1′-biphenyl]-3-yl)ethyl)imidazo[1,5-a]pyrazin-8-amine] | 1100 | 17 | 930 | 1200 |
| Cc1nc([C@@H](C)c2cc(Cl)c(F)c(-c3ccc(C(F)(F)F)nc3)c2OC(C)C)n2ccnc(N)c12 [Compound 58, (S)-3-(1-(5-chloro-4-fluoro-2-isopropoxy-3-(6-(trifluoromethyl)pyridin-3-yl)phenyl)ethyl)-1-methylimidazo[1,5-a]pyrazin-8-amine] | 14000 | 5.6 | 17000 | 13000 |
| CC(C)Oc1c(C(C)c2nc(Cl)c3c(N)nccn23)cc(Cl)c(Cl)c1-c1ccc(C(F)(F)F)nc1 (centres unmarked) [Compound 37, 1-chloro-3-(1-(4,5-dichloro-2-isopropoxy-3-(6-(trifluoromethyl)pyridin-3-yl)phenyl)ethyl)imidazo[1,5-a]pyrazin-amine] | 11000 | 4.2 | 1900 | 900 |
| Cc1nc(C(C)c2cc(Cl)c(F)c(-c3ccc(C#N)nc3)c2OC(C)C)n2ccnc(N)c12 (single isomer, unassigned) [Compound 59A, 5-(3-(1-(8-amino-1-methylimidazo[1,5-a]pyrazin-3-yl)ethyl)-5-chloro-6-fluoro-2-isopropoxyphenyl)picolinonitrile] | 6300 | 1.2 | 1400 | 2700 |
